# Laboratory results: patent publication US4151041A, “Process for production of maltopentaose and maltohexaose” (Meiji Seika Kaisha, Ltd., priority 1976, dated 1979)
# How the values were obtained:
# [1] = in vitro antimicrobial / antibacterial activity (general statement); type: cell-based; details: for in vitro antimicrobial activity: in themselves
# solubility = type: physicochemical
# Klebsiella pneumoniae = test: paper disc-plate method, combination with SF-1130-x1 substance; type: cell-based; details: in combination with SF-1130-x1, Klebsiella pneumoniae
# test microorganism = test: paper disc-plate method, test microorganisms in general; type: cell-based; details: for effect on antibacterial activity of the SF-1130-x2 substance: 1.25 mg/cc in upper plate layer, with SF-1130-x2; for antibacterial activity in themselves: alone, under the Table 4 testing conditions; for effect on antibacterial activity of the SF-1130-x1 substance: in combination with SF-1130-x1; for effect on antibacterial activity of the SF-1130-x substance: with SF-1130-x substance
# Experimental: The test was conducted by a conventional paper disc-plate method. Thus, the SF-1130-x2 substance was dissolved in distilled water at a concentration of 1 mg/cc or 2 mg/cc, and with the test solutions so prepared were impregnated paper discs made of filter paper 8 mm in diameter which were subsequently air-dried. These paper discs were placed on an upper plate layer of the known mycin-assay incubation medium comprising 0.5% peptone, 0.3% meat extract and 1.5% agar (pH 6) which contained the test microorganism to be incubated therein and which was laid over the lower layer of agar medium in the assaying dish. The incubation was made at a temperature of 37° C. overnight, and subsequently the diameters of the inhibition zones formed around the paper discs were measured. These tests were repeated in the same manner as above but with the additional incorporation of 1.25 mg/cc of maltopentaose or maltohexaose into the upper plate layer of the micin-assay incubation medium. […] Control testing was also conducted in which the antibacterial potency of the SF-1130-x2 substance alone was estimated in the absence of maltopentaose or maltohexaose.
# [2] = test system: Staphylococcus aureus Smith S-424; test: host-defense stimulation in JCL-ICR mice against bacterial infection (survival, LD50 of bacteria); type: in vivo; details: living animals
# Experimental: The test was conducted as follows: The crude, yellowish brown powder obtained in Example 1 was reprecipitated from water-ethanol and the reprecipitate was dissolved in a phosphate-buffered saline at ph 7.2. The resultant solution containing a mixture of maltopentaose and maltohexaose was intraperitoneally administered into a group of JCL-ICR mice (male) having an average body weight of 20g (4 weeks old) (eight mice per group) at a dosage of 100 mg/kg body or 20 mg/kg body. The administration was effected three times at an interval of 48 hours.
# 72 hours after the final administration, the mice were intraperitoneally inoculated with 0.5 ml/mouse of a cell dispersion of Staphylococcus aureus Smith S-424 strain which had been prepared by dilution of the incubated culture with physiological saline solution followed by addition of 5% mucin. The number of the mice that survived was counted during five days after the inoculation and the LD50 value of the bacterial cells (the number of the bacterial cells necessary to kill 50% of mice) calculated in each case. Control testing was also conducted where the treatment with the mixture of maltopentaose and maltohexaose was omitted.
# [3] = test system: mice infected with ascites tumor of "Sarcoma 180"; test: cellular immunity test according to the delayed skin reaction technique; type: in vivo, ICR-JCL mice (male); details: for adjuvant effect on immuno-potentiating activity of SF-1130-x substance: with SF-1130-x substance
# Experimental: The test was carried out by the following procedure: A group of ICR-JCL mice (male) having an average body weight of 31.58±4g (8 weeks old) (six mice per group) were inoculated with ascites tumor of "Sarcoma 180". 24 hours after the inoculation of the tumor cells, each of the drug samples to be tested was subcutaneously administered once into the mice. Two days after the inoculation an ethanolic solution of 5% picryl chloride was applied to the hair-shaved abdomens of mice to establish the sensitization. Subsequently, each drug sample under test was subcutaneously administered once a day for four successive days. Nine days after the inoculation, a solution of 1% picryl chloride in olive oil was applied to the two sides of both ears of mice to establish the secondary sensitization. 24 hours after the secondary sensitization, the degree (%) of increase in thickness of the ears was evaluated for the test mice. The extent of the delayed skin reaction can be assessed from the percentage increase.
SMILES,in vitro antibacterial activity [1],in vitro antimicrobial activity [1],solubility in acetone (solubility),solubility in ethanol (solubility),solubility in water (solubility),effect on antibacterial activity of the SF-1130-x1 substance (Klebsiella pneumoniae),effect on antibacterial activity of the SF-1130-x2 substance (test microorganism),antibacterial activity in themselves (test microorganism),effect on antibacterial activity of the SF-1130-x1 substance (test microorganism),effect on antibacterial activity of the SF-1130-x substance (test microorganism),effect on host-defense system against bacterial infection [2],adjuvant effect on immuno-potentiating activity of SF-1130-x substance [3],"Degree of increase in thickness (ears) ([3]; 200 mg/kg body, subcutaneous)","Percentage increase ([3]; 200 mg/kg body, subcutaneous, Control = 100.0) [%]"
OC[C@H]1O[C@H](O[C@H]2[C@H](O)[C@@H](O)[C@@H](O[C@H]3[C@H](O)[C@@H](O)[C@@H](O[C@H]4[C@H](O)[C@@H](O)[C@@H](O[C@H]5[C@H](O)[C@@H](O)C(O)O[C@@H]5CO)O[C@@H]4CO)O[C@@H]3CO)O[C@@H]2CO)[C@H](O)[C@@H](O)[C@@H]1O (some centres unmarked) [maltopentaose],no in vitro antibacterial activity,no in vitro antimicrobial activity,insoluble,insoluble,readily soluble,improvement in the antibacterial activity is not observed,improves the antibacterial activity,no antibacterial activity,generally improves the antibacterial activity,improving the antibacterial activity,may stimulate the host-defense system,adjuvant effect of increasing the immuno-potentiating activity,,
OC[C@H]1O[C@H](O[C@H]2[C@H](O)[C@@H](O)[C@@H](O[C@H]3[C@H](O)[C@@H](O)[C@@H](O[C@H]4[C@H](O)[C@@H](O)[C@@H](O[C@H]5[C@H](O)[C@@H](O)[C@@H](O[C@H]6[C@H](O)[C@@H](O)C(O)O[C@@H]6CO)O[C@@H]5CO)O[C@@H]4CO)O[C@@H]3CO)O[C@@H]2CO)[C@H](O)[C@@H](O)[C@@H]1O (some centres unmarked) [maltohexaose],no in vitro antibacterial activity,no in vitro antimicrobial activity,insoluble,insoluble,readily soluble,improvement in the antibacterial activity is not observed,improves the antibacterial activity,no antibacterial activity,generally improves the antibacterial activity,improving the antibacterial activity,may stimulate the host-defense system,adjuvant effect of increasing the immuno-potentiating activity,4.7 ± 0.988 ×10^ -3 cm,87.0
